Where a name gives a salt, the structure may show the parent alone.
Assays:
BMI-1 protein = assay: Inhibition of BMI-1 protein levels in U87 cells (Western blotting); type: cell-based; details: read-out: IC50, inhibition of BMI-1 protein levels, U87 glioblastoma cell lysate, 72 hours
Experimental: U87 cells were treated with DMSO or different concentrations of compound B1 for 72 hours. Cells were lysed in Cell Lysis Buffer (Cell Signaling, #9803) supplemented with Protease Inhibitor Cocktail (Sigma, #P8340), sonicated briefly while on ice and spun down for 30 minutes at 4° C., after which the supernatant was collected. For each sample, 2 uL of lysate was mixed well into 198 uL de-ionized water. Next, 10 uL of this diluted sample was added to a well in a 96 well plate in quadruplets and mixed with Protein Assay Dye Reagent Concentrate (Bio-Rad, #500-0006) (which was diluted 1:5 with water). BSA standards of 25 ng, 50 ng, 100 ng, 200 ng and 250 ng were also used to the plate and mixed with the reagent. The plate was read in a plate reader at 600 nm and samples were calibrated to the standards to determine the concentration of protein. Using the NuPAGE system (Invitrogen), 25 ug of protein was mixed with NuPAGE LDS 4× Sample Buffer (#NP0007), NuPAGE 10× Reducing Agent (#NP0004) and water, mixed well and heated at 96° C. for 15 minutes to denature the protein. […] Protein signals were detected using ECL Western Blotting Substrate (Pierce, #32106) and filmed.
U87 cells were treated with DMSO or different concentrations of the inhibitors for 72 hours. […] The plate was read in a plate reader at 600 nm and samples were calibrated to the standards to determine the concentration of protein. […]

U87 glioblastoma cells = assay: Comparison of Example 3 and PTC-209 in U87 glioblastoma cells (cell viability); type: cell-based
Source text: (§1) BMI-1 inhibitors were developed by the Molecular Design and Synthesis laboratory, Rutgers Translational Sciences at Rutgers University, NJ, USA. […] (Generic name is PTC-209) was characterized among a screen for post-transcriptional inhibitors of BMI-1. Zebrafish embryo toxicology assays were used to select RU-A compounds with no embryonic toxicity in vivo (a surrogate assay for toxic effects on normal stem cells). […] Cells were counted using Beckman Coulter Vi-CELL Cell Viability Analyzer, and cell viability was confirmed by CellTiter-Glo Luminescent Cell Viability Assay (Promega, Madison, Wis., USA) according to standard protocols and analyzed with a Victor 2 plate reader (Wallac, Turku, Finland).

[1] = test system: BMI-1 and ubiquitinated histone H2A in primary glioblastoma cells; assay: Modulation / dynamics of BMI-1 and downstream targets in GBM cells (Western blotting); type: cell-based, human
Experimental: Different GBM cells were treated with DMSO or different concentrations of the B compounds for 72 hours. Cells were lysed in Cell Lysis Buffer (Cell Signaling, #9803) supplemented with Protease Inhibitor Cocktail (Sigma, #P8340), spun down for 30 minutes at 4° C., after which the supernatant was collected at every time point indicated. Western blotting analysis was performed on all samples as described above. BMI-1 loss started at 6-12 h, coinciding with an upper shift and hyper-phosphorylation of BMI-1 at 12-24 h and complete depletion at 72 h.
To study the compound dynamic activity against GBM spheres, GBMs were tested with exemplary compounds. Different GBM cells were treated with DMSO or different concentrations of the inhibitors for 72 hours. Cells were lysed in Cell Lysis Buffer (Cell Signaling, #9803) supplemented with Protease Inhibitor Cocktail (Sigma, #P8340), spun down for 30 minutes at 4° C., after which the supernatant was collected at every time point indicated. Western blotting analysis was performed on all samples as described above. […] BMI-1 loss started at 6-12 h, coinciding with an upper shift and hyper-phosphorylation of BMI-1 at 12-24 h and complete depletion at 72 h. […] This is expected since BMI-1 is known to suppress p21. BMI-1 inhibition could be reversed using phosphatase treatment, moreover, when proteasomal inhibitor is added to treated cells after 24 h, BMI-1 is locked in the phosphorylated state, therefore showing that the phosphorylation event precedes BMI-1 degradation. The phosphorylation was independent of p38 kinase activation, as when we added […], the p38 inhibitor to the cultured cells upon treatment with the BMI-1 inhibitor, the combined treatment could not reverse the effects of RU-A15 on BMI-1 inhibition.

BMI-1 5'UTR = assay: Luciferase plasmid containing the BMI-1 5'UTR with or without binding pocket; type: cell-based
Experimental: Since translation initiation is dependent on RNA folding, the 3D folding of the BMI-1 5′UTR was examined. To identify sequences that fold into a target minimum and maximum free energy (MFE) secondary structure, inverse RNA folding of the BMI-1 5′UTR was performed using the mFold server. A highly probable, probability annotated group of secondary structures were identified, starting with the MFE, centroid energy structures and including fourteen other probabilities. […] In a luciferase plasmid containing the BMI-1 5′UTR, the sequences of the pocket region that contains the potential binding site was removed by cutting with compatible restriction enzymes and re-ligating the plasmid. The luciferase activity was examined with the luc plasmids or without the binding pocket upon treatment with the inhibitors. […] Thus, RU-A15/A16 engages with the BMI-1 UTR regulatory mechanisms.

BMI-1 and αENaC mRNA = assay: mRNA expression of BMI-1 and αENaC on concomitant treatment with cyclohexamide; type: cell-based; details: RU-A15 100 nM, RU-A16 200 nM, concomitant with CHX
Experimental: Next, to test if Examples 3 and 4 are selective for BMI-1 RNA, cells were concomitantly treated with RU-A15/16 (100 nM, 200 nM, respectively) and cyclohexamide (CHX), a general translational inhibitor, and analyzed mRNA expression of BMI-1 and the CHX-specific target epithelial sodium channel (αENaC).

normal astrocytes = assay: Effects on normal astrocytes; type: cell-based
Source text: as §1

Zebrafish embryo = Zebrafish embryo toxicology assay; type: in vivo
Source text: as §1

[2] = test system: glioblastoma cancer stem cells; assay: Sphere selectivity ratio EC50(U87)/EC50(spheres); type: cell-based, human; details: ratio greater than controls (DMSO and Temozolomide)
Experimental: The selectivity and potency in U87 cells were assessed vs primary GBM. Dose-response curves were generated in both spheres and monocultures and used to determine a sphere selectivity ratio (targeting Glioblastoma Initiating Cells), defined as EC50(U87)/EC50(spheres), for each compound.

[3] = primary glioblastoma cells, Western blotting

IC50 (BMI-1 protein): 0.01 µM
IC50 (U87 glioblastoma cells; Homo sapiens, U-87 MG, 72 hours): 0.01 µM
normalized luc, BMI-1 5'UTR with intact binding pocket (BMI-1 5'UTR; intact minor groove potential binding pocket): significantly reduced normalized luc
effects on normal astrocytes (normal astrocytes): no significant effects
SMILES: COc1ccc(Nc2nc(-c3c(C)nc4ccccn34)cs2)cc1 [Example 3, N-(4-methoxyphenyl)-4-(2-methylimidaz[1,2-a]pyridin-3-yl)thiazol-2-aminehydrobromide]
potency relative to PTC-209 (U87 glioblastoma cells): one thousand-fold more potent than PTC-209
CDK inhibitor p21 ([1]; GBM#46 and #50): induced upregulation of the CDK inhibitor p21
lowest concentration giving dose-dependent loss of BMI-1 protein expression ([1]; GBM#50, 72 h): 25 nM
BMI-1 protein levels [1, 3]: inhibit BMI-1
WT p53 levels [1, 3]: increase WT p53 levels
ubiquitin H2A [1, 3]: inhibit ubiquitin H2A
normalized luc, binding pocket sequences removed (BMI-1 5'UTR; pocket sequences removed): not when the pocket sequences were removed
BMI-1 mRNA expression (BMI-1 and αENaC mRNA): did not inhibit
αENaC mRNA expression (BMI-1 and αENaC mRNA): did not inhibit
effects in embryo assays (Zebrafish embryo): no significant effects
selectivity for glioblastoma cancer stem cells (sphere selectivity ratio) [2]: high selectivity for glioblastoma cancer stem cells

Reference: US10875861B1, “Therapeutic compounds” (Rutgers, The State University of New Jersey, priority 2017, dated 2020)
